Target: Glutamate receptor ionotropic, AMPA (Rattus norvegicus, UniProt P19490+P19491+P19492+P19493)
Experiment: Inhibition of Ca 2+ Influx in cultured rat cerebellar granule cells, mediated by ionotropic glutamate receptor AMPA
Assay type: functional

Row | Structure (SMILES) | IC50 [nM]
1 | O=c1c2cc(F)ccc2nc(CNCc2ccccc2F)n1-c1ccccc1Cl | > 300
2 | CN(Cc1nc2ccc(F)cc2c(=O)n1-c1ccccc1Cl)c1ccccc1F | 2000
3 | O=c1c2cc(F)ccc2nc(CC(O)c2ccccc2F)n1-c1ccccc1Cl (stereo in doubt; 3b) | > 3000
4 | O=c1c2cc(F)ccc2nc(CC(O)c2ccccc2F)n1-c1ccccc1Cl (stereo in doubt; 3a) | 240
5 | CC(=O)N(Cc1nc2ccc(F)cc2c(=O)n1-c1ccccc1Cl)c1ccccc1F | > 3000
6 | N#Cc1ccccc1NCc1nc2ccc(F)cc2c(=O)n1-c1ccccc1Cl | 42
7 | O=c1c2cc(F)ccc2nc(COc2ccccc2F)n1-c1ccccc1Cl | > 10000
8 | O=c1c2cc(F)ccc2nc(/C(O)=C/c2ccccc2F)n1-c1ccccc1Cl | > 30000
9 | Cc1cccc(NCc2nc3ccc(F)cc3c(=O)n2-c2ccccc2Cl)c1 | 213
10 | O=c1c2cc(F)ccc2nc(CNc2ccccc2F)n1-c1ccccc1Cl | 13

— ChEMBL document CHEMBL1134483, “Quinazolin-4-one alpha-amino-3-hydroxy-5-methyl-4-isoxazolepropionic acid (AMPA) receptor antagonists: structure-activity relationship of the C-2 side chain tether” (J Med Chem, 2001)
